{"source": "paper PMC12566971", "about": "“Polyprenylated Acylphloroglucinols from Hypericum rochelii and Hypericum olympicum—Cytotoxic Effects on Non-Tumorigenic Cell Lines and Antibacterial Potential” (Pharmaceuticals, 2025)", "key": {"CCL-1 cell line": {"system": "CCL-1 cell line", "test": "Live-cell imaging with Hoechst for apoptosis detection", "type": "cell-based", "settings": "positive control, 5 to 72 h", "method": "Cell suspension was seeded in the same manner as for MTT, but 50 µL per well in 96-well clear bottom plates. […] For the hypertonic buffer, the exposure time was 2 h, and the cells were plated at twice the concentration as for the MTT and cytopathic tests in order to comply with the kit protocol.\nAt least two wells were seeded as replicates, and at least two photographs were taken for all samples and treatments, stained with dyes or not."}, "breast cancer cell line": {"system": "breast cancer cell line", "set-up": "method as in PMID 26865836", "settings": "24 h, ref [93]; cited from earlier work"}, "unspecified fibroblasts": {"system": "unspecified fibroblasts", "settings": "up to 30 μg/mL for 24 h, ref [93]; cited from earlier work"}, "HT-22 and SH-SY5Y cells": {"system": "HT-22 and SH-SY5Y cells", "settings": "concentration where viability was restored to about 75%, ref [103]; read-out: Effective concentration 50 (EC50), neuroprotection; cited from earlier work"}, "[1]": {"system": "panel of cancer cell lines", "set-up": "method as in PMID 39454890", "settings": "ref [48]; read-out: IC50 against a panel of cancer cell lines; cited from earlier work"}, "[2]": {"system": "Methicillin-Resistant S. aureus (MRSA)", "test": "MIC and MBC evaluation (broth microdilution, agar plate assay)", "type": "cell-based, Staphylococcus aureus", "method": "(§1) The MIC and MBC assessment on the pathogenic bacteria and the candidate probiotic lactic acid bacteria was carried out by the broth microdilution assay (BMD) and the agar plate assay, respectively, as described in [4]. The metabolic (dehydrogenase) activity of the lactic acid bacteria was assessed as described in [4].\n(§2) P. aeruginosa PAO1 ATCC 15692 was purchased from the American Type Cell Culture Collection (ATCC, Manassas, VA, USA). S. mutans DSM 20523 was bought from the German Collection of Microorganisms and Cell Cultures (DSMZ GmbH, Braunschweig, Germany). All other bacteria and strains were purchased as described in [4]."}, "Enterococcus faecalis [3]": {"system": "Enterococcus faecalis", "test": "MIC and MBC evaluation (broth microdilution, agar plate assay)", "type": "cell-based", "settings": "for MBC/MIC ratio, E. faecalis: bactericidal if ≤ 4, bacteriostatic if > 4", "method": "as §1, §2"}, "[4]": {"system": "Pseudomonas aeruginosa PAO1", "test": "MIC and MBC evaluation (broth microdilution, agar plate assay)", "type": "cell-based", "method": "as §1, §2"}, "Staphylococcus aureus [5]": {"system": "Staphylococcus aureus", "test": "MIC and MBC evaluation (broth microdilution, agar plate assay)", "type": "cell-based", "method": "as §1, §2"}, "Streptococcus pyogenes [6]": {"system": "Streptococcus pyogenes", "test": "MIC and MBC evaluation (broth microdilution, agar plate assay)", "type": "cell-based", "settings": "for MBC/MIC ratio, S. pyogenes: bactericidal if ≤ 4, bacteriostatic if > 4", "method": "as §1, §2"}, "HEPG2": {"system": "HEPG2", "test": "MTT assay for cytotoxicity", "type": "cell-based, human", "method": "(§3) The MTT assay was performed according to Annex C, ISO 10993-5 [56] as in [116]. The panel of non-tumorigenic cell lines consisted of one murine (CCL-1 fibroblasts, which are recommended as a standard for cytotoxicity evaluation in Annex C of ISO 10993-5 [56]) and four human cell lines—HaCaT (immortalized epidermal keratinocytes), HGF (gingival fibroblasts), HEK-293 (embryonic cells from kidney epithelium), and HEPG2 (hepatoblastoma). Although technically a cancer cell line, HEPG2 is non-tumorigenic and retains many hepatocyte-related features in its proteome and a high degree of morphological and functional differentiation, also being a stage one hepatoblastoma.\n(§4) CCL-1 was purchased from ATCC and HaCaT and HGF were bought from CLS Cell Lines Service (GmbH, Eppelheim, Germany). HEK-293 and HEPG2 were obtained from DSMZ. The cell culture medium for HaCaT and HEPG2 was Dulbecco’s Modified Eagle Medium (DMEM) with 4.5 g/L glucose (DMEM-HA). For HGF it was DMEM/F-12 (DMEM-12-A, a 1:1 mixture of DMEM and Ham’s F-12 medium). The cell medium for CCL-1 and HEK-293 was Eagle’s Minimum Essential Medium (MEM) (MEM-A). Ten percent heat-inactivated fetal bovine serum (FBS) was added to all media but to the one for the CCL-1 cells, to which 10% heat-inactivated horse serum was added. All media were supplemented with 2 mM L-glutamine and Penicillin/Streptomycin (Pen/Strep, 100×). The cell culture media, sera, and additives were from Capricorn Scientific (Düsseldorf, Germany).\n(§5) GraphPad Prism software version 9 (GraphPad Software Inc., San Diego, CA, USA) was used to calculate the IC50 values from the MTT assays as in [116], as well as the MTC values, and the ELISA standard curves. The MTC values are, according to ISO 10993-5, the maximum concentration at which at least 70% of the cells are viable (nonlin fit, range)."}, "HaCaT": {"system": "HaCaT", "test": "MTT assay for cytotoxicity", "type": "cell-based, human", "method": "as §3, §4, §5"}, "CCL-1": {"system": "CCL-1", "test": "MTT assay for cytotoxicity", "type": "cell-based, murine", "method": "as §3, §4, §5"}, "[7]": {"system": "Human embryonic kidney-293 (HEK-293)", "test": "MTT assay for cytotoxicity", "type": "cell-based", "method": "as §3, §4, §5"}, "[8]": {"system": "Human gingival fibroblasts (HGF)", "test": "MTT assay for cytotoxicity", "type": "cell-based", "method": "as §3, §4, §5"}, "Staphylococcus aureus [9]": {"system": "Staphylococcus aureus", "settings": "ref [4],[29]; cited from earlier work"}, "[10]": {"system": "Methicillin-Resistant S. aureus (MRSA)", "settings": "ref [4],[29]; cited from earlier work"}, "Enterococcus faecalis [11]": {"system": "Enterococcus faecalis", "settings": "ref [4],[29]; cited from earlier work"}, "Streptococcus pyogenes [12]": {"system": "Streptococcus pyogenes", "settings": "ref [4],[29]; cited from earlier work"}, "Streptococcus mutans": {"system": "Streptococcus mutans", "test": "MIC and MBC evaluation (broth microdilution, agar plate assay)", "type": "cell-based", "method": "as §1, §2"}, "[13]": {"settings": "bactericidal if ≤ 4, bacteriostatic if > 4"}}, "data": [{"compound": "COc1cccc2c1C(=O)c1c(O)c3c(c(O)c1C2=O)C[C@@](O)(C(C)=O)C[C@@H]3O[C@H]1C[C@H](N)[C@H](O)[C@H](C)O1", "note": "[daunorubicin, reference compound]", "values": [{"measurement": "Highly condensed and shrunken nuclei (marker of apoptosis)", "setting": "CCL-1 cell line", "result": "not in samples treated with daunorubicin"}]}, {"compound": "Cc1cc(O)c2c(=O)c3c(O)cc(O)c4c5c(O)cc(O)c6c(=O)c7c(O)cc(C)c8c1c2c(c34)c(c78)c65", "note": "[hypericin]", "values": [{"measurement": "IC50 for a breast cancer cell line", "setting": "breast cancer cell line", "result": 5, "unit": "µg/mL"}, {"measurement": "Effect on cell survival of fibroblasts", "setting": "unspecified fibroblasts", "result": "did not have a significant effect"}]}, {"compound": "c1cc2c(cc1[C@H]1OC[C@H]3[C@@H]1CO[C@@H]3c1ccc3c(c1)OCO3)OCO2", "note": "[sesamine]", "values": [{"measurement": "EC50", "setting": "HT-22 and SH-SY5Y cells", "result": 2.85, "unit": "µM"}]}, {"compound": "Cerastioside A", "values": [{"measurement": "IC50", "setting": "[1]", "result": "107 to 198", "unit": "µM"}]}, {"compound": "Olympiforin A", "values": [{"measurement": "MBC", "setting": "[2]", "result": 171, "unit": "µM"}, {"measurement": "MBC, Methicillin-Resistant S. aureus (MRSA)", "setting": "[2]", "result": 85, "unit": "µg/mL"}, {"measurement": "MBC/MIC ratio, MRSA", "setting": "[2]; [13]", "result": 7}, {"measurement": "MBC", "setting": "Enterococcus faecalis [3]", "result": 252, "unit": "µM"}, {"measurement": "MBC, Enterococcus faecalis", "setting": "Enterococcus faecalis [3]", "result": 125, "unit": "µg/mL"}, {"measurement": "MBC/MIC ratio, E. faecalis", "setting": "Enterococcus faecalis [3]", "result": 10}, {"measurement": "MBC, Pseudomonas aeruginosa PAO1", "setting": "[4]", "result": 2713, "unit": "µg/mL"}, {"measurement": "MIC, Pseudomonas aeruginosa PAO1", "setting": "[4]", "result": 1356, "unit": "µg/mL"}, {"measurement": "Minimal bactericidal concentration (MBC), Staphylococcus aureus", "setting": "Staphylococcus aureus [5]", "result": 25, "unit": "µg/mL"}, {"measurement": "MBC/MIC ratio, S. aureus", "setting": "Staphylococcus aureus [5]; [13]", "result": 32}, {"measurement": "MBC", "setting": "Staphylococcus aureus [5]; read-out: Minimal bactericidal concentration (MBC), Staphylococcus aureus", "result": 50, "unit": "µM"}, {"measurement": "MBC", "setting": "Streptococcus pyogenes [6]", "result": 1008, "unit": "µM"}, {"measurement": "MBC, Streptococcus pyogenes", "setting": "Streptococcus pyogenes [6]", "result": 500, "unit": "µg/mL"}, {"measurement": "MBC/MIC ratio, S. pyogenes", "setting": "Streptococcus pyogenes [6]", "result": 40}, {"measurement": "Maximum tolerated concentration (MTC), HEPG2", "setting": "HEPG2", "result": 2.51, "unit": "µg/mL"}, {"measurement": "IC50, HEPG2", "setting": "HEPG2; MTT assay", "result": 6.87, "unit": "µg/mL"}, {"measurement": "IC50", "setting": "HEPG2; converted to µM", "result": 13.8, "unit": "µM"}, {"measurement": "Maximum tolerated concentration (MTC), HaCaT", "setting": "HaCaT", "result": 0.47, "unit": "µg/mL"}, {"measurement": "IC50, HaCaT", "setting": "HaCaT; MTT assay", "result": 1.33, "unit": "µg/mL"}, {"measurement": "IC50", "setting": "HaCaT; converted to µM", "result": 2.68, "unit": "µM"}, {"measurement": "Maximum tolerated concentration (MTC), CCL-1", "setting": "CCL-1", "result": 3.27, "unit": "µg/mL"}, {"measurement": "IC50, CCL-1", "setting": "CCL-1; MTT assay", "result": 6.13, "unit": "µg/mL"}, {"measurement": "IC50", "setting": "CCL-1; converted to µM", "result": 12.3, "unit": "µM"}, {"measurement": "Maximum tolerated concentration (MTC), HEK-293", "setting": "[7]", "result": 0.41, "unit": "µg/mL"}, {"measurement": "IC50, HEK-293", "setting": "[7]; MTT assay", "result": 0.69, "unit": "µg/mL"}, {"measurement": "IC50", "setting": "[7]; converted to µM", "result": 1.39, "unit": "µM"}, {"measurement": "Maximum tolerated concentration (MTC), HGF", "setting": "[8]", "result": 16.78, "unit": "µg/mL"}, {"measurement": "IC50, HGF", "setting": "[8]; MTT assay", "result": 19.44, "unit": "µg/mL"}, {"measurement": "IC50", "setting": "[8]; converted to µM", "result": 39.1, "unit": "µM"}, {"measurement": "MIC on bacteria, S. aureus", "setting": "Staphylococcus aureus [9]", "result": 0.78, "unit": "µg/mL"}, {"measurement": "MIC on bacteria, MRSA", "setting": "[10]", "result": 12.5, "unit": "µg/mL"}, {"measurement": "MIC on bacteria, E. faecalis", "setting": "Enterococcus faecalis [11]", "result": 12.5, "unit": "µg/mL"}, {"measurement": "MIC on bacteria, S. pyogenes", "setting": "Streptococcus pyogenes [12]", "result": 12.5, "unit": "µg/mL"}]}, {"compound": "Penicillin [reference compound]", "values": [{"measurement": "MBC, Enterococcus faecalis", "setting": "Enterococcus faecalis [3]", "result": 20, "unit": "µg/mL"}, {"measurement": "MBC/MIC ratio, E. faecalis", "setting": "Enterococcus faecalis [3]", "result": 8}, {"measurement": "MBC for S. mutans", "setting": "Streptococcus mutans", "result": 2, "unit": "µg/mL"}, {"measurement": "MIC for S. mutans", "setting": "Streptococcus mutans", "result": 0.03, "unit": "µg/mL"}, {"measurement": "MBC/MIC ratio, Streptococcus mutans", "setting": "Streptococcus mutans; [13]", "result": 66}, {"measurement": "MBC, Streptococcus pyogenes", "setting": "Streptococcus pyogenes [6]", "result": 0.25, "unit": "µg/mL"}, {"measurement": "MBC/MIC ratio, S. pyogenes", "setting": "Streptococcus pyogenes [6]", "result": 3}]}]}
